Laboratory results: patent publication US20250382344A1, “Soluble GLP1/GIP/NPY2 Receptor Triple Agonists” (Boehringer Ingelheim International GmH, priority 2024, published 2025)
Where two headings read alike, the source gives them in different places.

What was measured:
hGLP1R = biological target: T1, hGLP1R (Homo sapiens, UniProt P43220); test: hGLP1R CreLuc assay in 0.5% and 100% plasma (HEK-293 CRE-luciferase reporter cells); assay type: cell-based; details: HEK-293 reporter cells
T1 construct: expressed in transfected cells; host or cells: HEK-293 CRE-luciferase reporter cells
T1 sequence (P43220 24-463): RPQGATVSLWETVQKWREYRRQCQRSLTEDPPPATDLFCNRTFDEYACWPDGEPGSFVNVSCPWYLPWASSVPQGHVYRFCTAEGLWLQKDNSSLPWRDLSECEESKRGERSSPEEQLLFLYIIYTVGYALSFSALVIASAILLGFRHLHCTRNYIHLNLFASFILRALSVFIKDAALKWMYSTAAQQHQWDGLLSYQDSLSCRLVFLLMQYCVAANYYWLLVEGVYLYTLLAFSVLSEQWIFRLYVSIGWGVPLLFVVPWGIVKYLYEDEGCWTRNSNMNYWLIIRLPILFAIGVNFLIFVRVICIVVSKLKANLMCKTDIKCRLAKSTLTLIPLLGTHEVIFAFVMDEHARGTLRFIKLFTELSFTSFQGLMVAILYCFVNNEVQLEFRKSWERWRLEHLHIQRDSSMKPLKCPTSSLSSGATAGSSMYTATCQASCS

hGIPR = biological target: T2, hGIPR (Homo sapiens, UniProt P48546); test: hGIPR CreLuc assay in 0.5% and 100% plasma (CHO CRE-luciferase reporter cells); assay type: cell-based
T2 construct: expressed in transfected cells; host or cells: CHO CRE-luciferase reporter cells
T2 sequence (P48546 22-466): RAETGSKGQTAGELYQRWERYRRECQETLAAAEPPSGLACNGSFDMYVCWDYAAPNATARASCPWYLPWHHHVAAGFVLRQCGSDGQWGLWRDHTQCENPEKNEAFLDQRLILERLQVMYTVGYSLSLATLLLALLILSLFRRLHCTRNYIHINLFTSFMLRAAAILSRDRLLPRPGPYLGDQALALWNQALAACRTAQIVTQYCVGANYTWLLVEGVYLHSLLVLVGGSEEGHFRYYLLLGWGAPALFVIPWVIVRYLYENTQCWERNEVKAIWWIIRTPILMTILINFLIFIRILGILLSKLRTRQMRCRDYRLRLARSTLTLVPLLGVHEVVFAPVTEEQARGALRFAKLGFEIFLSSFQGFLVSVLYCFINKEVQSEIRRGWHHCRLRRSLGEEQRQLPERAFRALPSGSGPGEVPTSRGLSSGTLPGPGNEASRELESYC

[1] = Solubility in 0.1 M phosphate buffer at pH 7; assay type: physicochemical; details: 0.1 M phosphate buffer at pH 7, 10 mg/mL final peptide concentration, shaking 2 hours at room temperature, peptides as TFA-salts; measured sample pH 6.5-7.0
[2] = 0.5% human plasma, read-out: hGLP1R 0.5% hP
[3] = 0.5% human plasma, read-out: hGIPR 0.5% hP
[4] = 100% human plasma, read-out: hGIPR 100% hP
[5] = 100% human plasma, read-out: hGLP1R 100% hP

Row | Compound | EC50 (hGLP1R; [2]) [nM] | EC50 (hGIPR; [3]) [nM] | EC50 (hGIPR; [4]) [nM] | solubility at 2 h [1] [µg/mL] | EC50 (hGLP1R; [5]) [nM]
1 | CC[C@H](C)[C@H](NC(=O)[C@H](CC(C)C)NC(=O)[C@H](Cc1c[nH]cn1)NC(=O)[C@H](CCCNC(=N)N)NC(=O)[C@@H](NC(=O)[C@H](Cc1ccccc1)NC(=O)[C@H](CCC(=O)O)NC(=O)C(C)(C)NC(=O)[C@H](CCC(N)=O)NC(=O)[C@H](C)NC(=O)[C@H](CCC(N)=O)NC(=O)[C@H](CCCCN)NC(=O)[C@H](CC(=O)O)NC(=O)[C@H](CC(C)C)NC(=O)C(C)(C)NC(=O)[C@@H](NC(=O)[C@H](CO)NC(=O)[C@H](Cc1ccc(O)cc1)NC(=O)[C@H](CC(=O)O)NC(=O)[C@H](CO)NC(=O)[C@@H](NC(=O)[C@H](Cc1ccccc1)NC(=O)[C@@H](NC(=O)CNC(=O)[C@H](CCC(=O)O)NC(=O)C(C)(C)NC(=O)[C@@H](N)Cc1ccc(O)cc1)[C@@H](C)O)[C@@H](C)O)[C@@H](C)CC)C(C)C)C(=O)N[C@@H](CC(N)=O)C(=O)N[C@@H](CCCCNC(=O)[C@@H](N)CCCCNC(=O)CC[C@H](NC(=O)CC[C@H](NC(=O)CC[C@H](NC(=O)CC[C@H](NC(=O)CC[C@H](NC(=O)CCCCCCCCCCCCCCCCC(=O)O)C(=O)O)C(=O)O)C(=O)O)C(=O)O)C(=O)O)C(=O)NC(C)(C)C(=O)N[C@H](C(=O)N[C@@H](CCCNC(=N)N)C(=O)N[C@@H](CCC(N)=O)C(=O)N[C@@H](CCCNC(=N)N)C(=O)N[C@@H](Cc1ccc(O)cc1)C(N)=O)[C@@H](C)O [Compound 113, Y-Aib-E-G-T-F-T-S-D-Y-S-I-Aib-L-D-K-Q-A-Q-Aib-E-F-V-R-H-L-I-N-K(1,3)-Aib-T-R-Q-R-Y-NH2.C18DA-gGlu-gGlu-gGlu-gGlu-gGlu-eLys(1,2)] | 0.1 | 0.2 | 5.5 | 8700 | 
2 | CC[C@H](C)[C@H](NC(=O)[C@H](CC(C)C)NC(=O)[C@H](C)NC(=O)[C@H](CCCNC(=N)N)NC(=O)[C@@H](NC(=O)[C@H](Cc1ccccc1)NC(=O)[C@H](C)NC(=O)C(C)(C)NC(=O)[C@H](CCC(N)=O)NC(=O)[C@H](C)NC(=O)[C@H](CCC(N)=O)NC(=O)[C@H](CCCCN)NC(=O)[C@H](CCC(=O)O)NC(=O)[C@H](CC(C)C)NC(=O)C(C)(C)NC(=O)[C@@H](NC(=O)[C@H](CO)NC(=O)[C@H](Cc1ccc(O)cc1)NC(=O)[C@H](CC(=O)O)NC(=O)[C@H](CO)NC(=O)[C@@H](NC(=O)[C@H](Cc1ccccc1)NC(=O)[C@@H](NC(=O)CNC(=O)[C@H](CCC(=O)O)NC(=O)C(C)(C)NC(=O)[C@@H](N)Cc1ccc(O)cc1)[C@@H](C)O)[C@@H](C)O)[C@@H](C)CC)C(C)C)C(=O)N[C@@H](CC(N)=O)C(=O)N[C@@H](CCCCNC(=O)[C@@H](N)CCCCNC(=O)CC[C@H](NC(=O)CC[C@H](NC(=O)CC[C@H](NC(=O)CC[C@H](NC(=O)CC[C@H](NC(=O)CC[C@H](NC(=O)CCCCCCCCCCCCCCCCC(=O)O)C(=O)O)C(=O)O)C(=O)O)C(=O)O)C(=O)O)C(=O)O)C(=O)NC(C)(C)C(=O)N[C@H](C(=O)N[C@@H](CCCNC(=N)N)C(=O)N[C@@H](CCC(N)=O)C(=O)N[C@@H](CCCNC(=N)N)C(=O)N[C@@H](Cc1ccc(O)cc1)C(N)=O)[C@@H](C)O [Compound 128, Y-Aib-E-G-T-F-T-S-D-Y-S-I-Aib-L-E-K-Q-A-Q-Aib-A-F-V-R-A-L-I-N-K(1,3)-Aib-T-R-Q-R-Y-NH2.C18DA-gGlu-gGlu-gGlu-gGlu-gGlu-gGlu-eLys(1,2)] | 0.7 | 0.2 |  | 4100 | 4
3 | CC[C@H](C)[C@H](NC(=O)[C@H](CC(C)C)NC(=O)[C@H](Cc1c[nH]cn1)NC(=O)[C@H](CCCNC(=N)N)NC(=O)[C@@H](NC(=O)[C@H](Cc1ccccc1)NC(=O)[C@H](C)NC(=O)C(C)(C)NC(=O)[C@H](CCC(N)=O)NC(=O)[C@H](C)NC(=O)[C@H](CCC(N)=O)NC(=O)[C@H](CCC(N)=O)NC(=O)[C@H](CCC(=O)O)NC(=O)[C@H](CC(C)C)NC(=O)C(C)(C)NC(=O)[C@@H](NC(=O)[C@H](CO)NC(=O)[C@H](Cc1ccc(O)cc1)NC(=O)[C@H](CC(=O)O)NC(=O)[C@H](CO)NC(=O)[C@@H](NC(=O)[C@H](Cc1ccccc1)NC(=O)[C@@H](NC(=O)CNC(=O)[C@H](CCC(=O)O)NC(=O)C(C)(C)NC(=O)[C@@H](N)Cc1ccc(O)cc1)[C@@H](C)O)[C@@H](C)O)[C@@H](C)CC)C(C)C)C(=O)N[C@@H](CC(N)=O)C(=O)N[C@@H](CCCCNC(=O)CC[C@H](NC(=O)CC[C@H](NC(=O)CC[C@H](NC(=O)CC[C@H](NC(=O)CC[C@H](NC(=O)CCCCCCCCCCCCCCCCC(=O)O)C(=O)O)C(=O)O)C(=O)O)C(=O)O)C(=O)O)C(=O)NC(C)(C)C(=O)N[C@H](C(=O)N[C@@H](CCCNC(=N)N)C(=O)N[C@@H](CCC(N)=O)C(=O)N[C@@H](CCCNC(=N)N)C(=O)N[C@@H](Cc1ccc(O)cc1)C(N)=O)[C@@H](C)O [Compound 42, Y-Aib-E-G-T-F-T-S-D-Y-S-I-Aib-L-E-Q-Q-A-Q-Aib-A-F-V-R-H-L-I-N-K(1,3)-Aib-T-R-Q-R-Y-NH2.C18DA-gGlu-gGlu-gGlu-gGlu-gGlu(1,2)] | 0.9 | 0.2 |  | 4300 | 14.5
4 | CC[C@H](C)[C@H](NC(=O)[C@H](CC(C)C)NC(=O)[C@H](Cc1c[nH]cn1)NC(=O)[C@H](CCCNC(=N)N)NC(=O)[C@@H](NC(=O)[C@H](Cc1ccccc1)NC(=O)[C@H](C)NC(=O)C(C)(C)NC(=O)[C@H](CCC(N)=O)NC(=O)[C@H](C)NC(=O)[C@H](CCC(N)=O)NC(=O)[C@H](CCCCN)NC(=O)[C@H](CC(=O)O)NC(=O)[C@H](CC(C)C)NC(=O)[C@](C)(CC(C)C)NC(=O)[C@@H](NC(=O)[C@H](CO)NC(=O)[C@H](Cc1ccc(O)cc1)NC(=O)[C@H](CC(=O)O)NC(=O)[C@H](CO)NC(=O)[C@@H](NC(=O)[C@H](Cc1ccccc1)NC(=O)[C@@H](NC(=O)CNC(=O)[C@H](CCC(=O)O)NC(=O)C(C)(C)NC(=O)[C@@H](N)Cc1ccc(O)cc1)[C@@H](C)O)[C@@H](C)O)[C@@H](C)CC)C(C)C)C(=O)N[C@@H](CC(N)=O)C(=O)N[C@@H](CCCCNC(=O)[C@@H](N)CCCCNC(=O)CC[C@H](NC(=O)CC[C@H](NC(=O)CC[C@H](NC(=O)CC[C@H](NC(=O)CC[C@H](NC(=O)CC[C@H](NC(=O)CCCCCCCCCCCCCCCCC(=O)O)C(=O)O)C(=O)O)C(=O)O)C(=O)O)C(=O)O)C(=O)O)C(=O)NC(C)(C)C(=O)N[C@H](C(=O)N[C@@H](CCCNC(=N)N)C(=O)N[C@@H](CCC(N)=O)C(=O)N[C@@H](CCCNC(=N)N)C(=O)N[C@@H](Cc1ccc(O)cc1)C(N)=O)[C@@H](C)O [Compound 67, Y-Aib-E-G-T-F-T-S-D-Y-S-I-aMeL-L-D-K-Q-A-Q-Aib-A-F-V-R-H-L-I-N-K(1,3)-Aib-T-R-Q-R-Y-NH2.C18DA-gGlu-gGlu-gGlu-gGlu-gGlu-gGlu-eLys(1,2)] | 0.1 | 0.1 | 1.7 | 8800 | 0.6
5 | CC[C@H](C)[C@H](NC(=O)[C@H](CC(C)C)NC(=O)[C@H](Cc1c[nH]cn1)NC(=O)[C@H](CCCNC(=N)N)NC(=O)[C@@H](NC(=O)[C@H](Cc1ccccc1)NC(=O)[C@H](C)NC(=O)C(C)(C)NC(=O)[C@H](CCC(N)=O)NC(=O)[C@H](C)NC(=O)[C@H](CCC(N)=O)NC(=O)[C@H](CCCCN)NC(=O)[C@H](CCC(=O)O)NC(=O)[C@H](CC(C)C)NC(=O)C(C)(C)NC(=O)[C@@H](NC(=O)[C@H](CO)NC(=O)[C@H](Cc1ccc(O)cc1)NC(=O)[C@H](CC(=O)O)NC(=O)[C@H](CO)NC(=O)[C@@H](NC(=O)[C@H](Cc1ccccc1)NC(=O)[C@@H](NC(=O)CNC(=O)[C@H](CCC(=O)O)NC(=O)C(C)(C)NC(=O)[C@@H](N)Cc1ccc(O)cc1)[C@@H](C)O)[C@@H](C)O)[C@@H](C)CC)C(C)C)C(=O)N[C@@H](CC(N)=O)C(=O)N[C@@H](CCCCNC(=O)CCCCCNC(=O)CC[C@H](NC(=O)CC[C@H](NC(=O)CC[C@H](NC(=O)CC[C@H](NC(=O)CC[C@H](NC(=O)CCCCCCCCCCCCCCCCC(=O)O)C(=O)O)C(=O)O)C(=O)O)C(=O)O)C(=O)O)C(=O)NC(C)(C)C(=O)N[C@H](C(=O)N[C@@H](CCCNC(=N)N)C(=O)N[C@@H](CCC(N)=O)C(=O)N[C@@H](CCCNC(=N)N)C(=O)N[C@@H](Cc1ccc(O)cc1)C(N)=O)[C@@H](C)O [Compound 13, Y-Aib-E-G-T-F-T-S-D-Y-S-I-Aib-L-E-K-Q-A-Q-Aib-A-F-V-R-H-L-I-N-K(1,3)-Aib-T-R-Q-R-Y-NH2.C18DA-gGlu-gGlu-gGlu-gGlu-gGlu-AHX(1,2)] | 0.4 | 0.1 |  | 4300 | 
